ChEMBL document CHEMBL1201862, “PubChem BioAssay data set” (2004)
Active and inactive are the calls of the source.

Experiments:
Paired box protein Pax-8 = Paired box protein Pax-8 (Homo sapiens, UniProt Q06710); assay: inhibitors of PAX8-driven TPO luciferase reporter, dose response, RMG-I cells, cherry-pick (AID 687027); format: functional, cell-based;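 note: luciferase reporter driven by Pax8 target thyroperoxidase promoter measured by SteadyGlo luminescence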
[1] = NIH:OVCAR-3 ovarian cancer cell cytotoxicity, dose response, PAX8 inhibitor project, plate reader, dry powder samples (AID 743044); format: functional, cell-based
[2] = IGROV1 ovarian cancer cell cytotoxicity, dose response, PAX8 inhibitor project, plate reader, dry powder samples (AID 743043); format: functional, cell-based; conditions: IGROV-1
[3] = cytotoxicity in OVCAR8 ovarian cancer cells, dose response, PAX8 project, cell-based, plate reader, dry powder samples (AID 743197); format: functional; conditions: OVCAR-8
[4] = A375 melanoma cell viability loss, dose response, counter-screen for MITF inhibitor project, CellTiter-Glo luminescence, dry powder, set 4 (AID 624364); format: functional, cell-based; conditions: A-375;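 note: A375 melanoma cells are MITF independent so this is a counter screen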
[5] = A375 melanoma cell cytotoxicity, dose response, counter-screen for MITF inhibitor project, CellTiter-Glo luminescence, dry powder, set 2 (AID 624489); format: functional, cell-based; conditions: A-375;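 note: actives are compounds lowering A375 viability meaning general cytotoxicity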
[6] = A549 cell cytotoxicity, dose response, cytotoxicity control, plate reader, cherry-pick, antagonist series (AID 743412); format: functional, cell-based
[7] = HepG2 cell cytotoxicity, dose response, cytotoxicity control, plate reader, cherry-pick, antagonist series (AID 743416); format: functional, cell-based
[8] = LGR2 antagonists, dose response, cell-based, HEK293, CRE-luciferase reporter, cherry pick, set 2 (AID 743343); format: functional;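 note: transfected cells were stimulated with diluted bursicon conditioned medium after compound addition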
[9] = MC4R antagonists, dose response, counter-screen for LGR2 antagonist project, cell-based, plate reader, cherry pick (AID 743444); format: functional;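 note: transfected HEK 293 cells stimulated with alpha-MSH peptide; potency of inhibitors of the alpha-MSH evoked signal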
[10] = P. falciparum 3D7-ScDHODH growth inhibitors, dose response, SYBR Green, dry powder samples (AID 1159570); format: functional, cell-based;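 note: parasite growth measured after 72 hours of compound exposure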
[11] = HepG2 cell cytotoxicity, dose response, cytotoxicity control, plate reader, dry powder samples (AID 1159569); format: functional, cell-based;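 note: inhibitor potency with signal falling toward the positive control level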
[12] = P. falciparum Dd2 growth inhibitors, dose response, SYBR Green, cherry-picked samples (AID 1159567); format: functional, cell-based
[13] = P. falciparum Dd2 growth inhibitors, dose response, SYBR Green, dry powder samples (AID 1159566); format: functional, cell-based;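 note: potency for growth inhibition with lower SYBR green DNA signal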
[14] = P. falciparum ATP4 D1247Y mutant growth inhibitors, dose response, NITD609-resistant line, SYBR Green, dry powder (AID 1159571); format: functional, cell-based;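 note: parasites synchronized at ring stage by sorbitol before testing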
[15] = HepG2 cell cytotoxicity, dose response, cytotoxicity control, cherry-picked samples (AID 1159577); format: functional, cell-based
[16] = HeLa 2N DNA content increase, dose response, cell-based, IC50 (AID 1117349); format: functional
[17] = Concentration-dependent survival of SW480 colon cancer line, luminescence detection with CellTiter-Glo, half-maximal inhibitory concentration (AID 1117338); format: functional
[18] = RKO cell viability reduction, dose response, CellTiter-Glo luminescence (AID 1117322); format: functional
[19] = cytotoxicity toward HCT116 cells – cell-based, CellTiter-Glo luminescence, IC50, dose response (AID 1117332); format: functional; conditions: HCT-116
[20] = SNU-C1 cell viability reduction, dose response, CellTiter-Glo luminescence (AID 1117323); format: functional, cell-based
[21] = cytotoxicity toward Colo320 cells – cell-based, CellTiter-Glo luminescence, IC50, dose response (AID 1117334); format: functional; conditions: COLO 320
[22] = HeLa 4N DNA content increase, dose response, cell-based, IC50 (AID 1117351); format: functional
[23] = cytotoxicity toward HT-29 cells – cell-based, CellTiter-Glo luminescence, IC50, dose response (AID 1117330); format: functional
[24] = CellTiter-Glo luminescent dose response of DLD-1 viability loss (AID 1117352); format: functional
[25] = HCT116 cell viability decrease, GSK3B pretreatment – CellTiter-Glo, IC50, dose response (AID 1117339); format: functional; conditions: HCT-116

Chain of Paired box protein Pax-8 (Q06710 whole entry): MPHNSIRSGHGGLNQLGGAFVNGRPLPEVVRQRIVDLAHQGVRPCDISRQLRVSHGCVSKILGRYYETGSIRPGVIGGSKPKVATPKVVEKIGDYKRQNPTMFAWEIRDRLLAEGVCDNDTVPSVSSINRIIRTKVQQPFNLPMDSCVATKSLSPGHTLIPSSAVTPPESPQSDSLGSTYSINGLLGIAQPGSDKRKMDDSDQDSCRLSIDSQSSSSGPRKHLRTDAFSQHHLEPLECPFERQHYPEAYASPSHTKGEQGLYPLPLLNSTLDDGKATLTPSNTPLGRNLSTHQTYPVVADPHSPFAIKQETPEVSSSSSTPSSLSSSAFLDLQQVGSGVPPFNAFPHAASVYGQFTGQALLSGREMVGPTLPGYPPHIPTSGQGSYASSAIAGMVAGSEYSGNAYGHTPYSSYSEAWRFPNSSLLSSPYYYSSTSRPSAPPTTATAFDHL

With `COc1cccc(-c2ccc3c(c2)[C@H]2[C@H](CCN2S(=O)(=O)c2ccccc2F)[C@@H](CO)N3)c1` the AC50 (Paired box protein Pax-8) was 3.92 µM (active), the AC50 [1] was 19.1 µM (active) and the AC50 [2] was 31.4 µM (active). For the same compound, the AC50 [3] was 21.9 µM (active).
In the case of `O=C1C(NS(=O)(=O)c2ccccc2)=C(N2CCCCC2)C(=O)c2ccccc21`, the AC50 [4] is reported as > 70 µM (inactive) and the AC50 [5] is reported as > 70 µM (inactive).
For `N#C[C@@H]1[C@H](c2ccc(C#Cc3ccccc3F)cc2)[C@@H](CO)N1C(=O)C1CCC1`, the AC50 [6] was 31.2 µM (active), the AC50 [7] was 31.5 µM (active) and the AC50 [8] was 29.9 µM (active). For the same compound, the AC50 [9] was 22.5 µM (active).
In the case of `C[C@@H]1CN([C@H](C)CO)C(=O)c2c(c3ccccc3n2C)-c2ccccc2CO[C@@H]1CN(C)C(=O)[C@H](C)c1ccccc1`, the AC50 [10] is reported as 1.66 µM (active), the AC50 [11] is reported as 45.5 µM (active) and the AC50 [12] is reported as 1.39 µM (active). For the same compound, the AC50 [13] was 1.1 µM (active) and the AC50 [14] was 1.33 µM (active).
With `Cc1ccc(-c2ccc([C@@H]3[C@H](CO)N4CCCCN(C(=O)Nc5cccc(F)c5)C[C@@H]34)cc2)cc1` the AC50 [1] was 7.83 µM (active), the AC50 [2] was 18.1 µM (active) and the AC50 [3] was > 70 µM (inactive).
For `CCCC#Cc1ccc([C@H]2[C@H](CO)N3CCCCN(CC4CCOCC4)C[C@@H]23)cc1`, the AC50 [12] was 3.68 µM (active) and the AC50 [15] was 26.9 µM (active).
For `CCCNC[C@@H]1[C@@H](c2ccc(C3=CCCC3)cc2)[C@@H](CO)N1C(=O)C1CCCC1`, the AC50 [12] was 4 µM (active) and the AC50 [15] was 32.4 µM (active).
In the case of `COc1cccc(NC(=O)N2[C@H](CO)[C@@H](c3ccccc3)[C@H]2CNCC(C)C)c1`, the AC50 [10] is reported as 1.44 µM (active), the AC50 [11] is reported as 43.5 µM (active) and the AC50 [12] is reported as 1.75 µM (active). The AC50 [13] was 1.58 µM (active) and the AC50 [14] was 1.64 µM (active).
In the case of `O=C(NC1=C(c2ccc(Oc3ccccc3)cc2)C(=O)c2ccccc2C1=O)c1ccccc1`, the AC50 [4] is reported as > 70 µM (inactive) and the AC50 [5] is reported as > 70 µM (inactive).
In the case of `O=[N+]([O-])c1ccc(Oc2ccc(N=C=S)cc2)cc1` [NITROSCANATE], the IC50 [16] is reported as > 10 µM (inactive), the IC50 [17] is reported as 1.63 µM (active) and the IC50 [18] is reported as 2.34 µM (active). For the same compound, the IC50 [19] was 2.77 µM (active), the IC50 [20] was 4.33 µM (active) and the IC50 [21] was 1.46 µM (active). The IC50 [22] was > 10 µM (inactive), the IC50 [23] was 1.07 µM (active) and the IC50 [24] was 2.1 µM (active). The IC50 [25] was 1.47 µM (active).
